{"source": "patent US11365194B2", "about": "“Analgesic drug using PAC1 receptor antagonistic drug” (KAGOSHIMA UNIVERSITY, priority 2017, dated 2022)", "key": {"[1]": {"biological_target": "T1, mouse VPAC1 receptor-expressing CHO cell (VPAC1/CHO cell) (Mus musculus, UniProt P97751)", "T1 construct": "expressed in transfected cells; host or cells: CHO cells", "T1 sequence (P97751 31-459)": "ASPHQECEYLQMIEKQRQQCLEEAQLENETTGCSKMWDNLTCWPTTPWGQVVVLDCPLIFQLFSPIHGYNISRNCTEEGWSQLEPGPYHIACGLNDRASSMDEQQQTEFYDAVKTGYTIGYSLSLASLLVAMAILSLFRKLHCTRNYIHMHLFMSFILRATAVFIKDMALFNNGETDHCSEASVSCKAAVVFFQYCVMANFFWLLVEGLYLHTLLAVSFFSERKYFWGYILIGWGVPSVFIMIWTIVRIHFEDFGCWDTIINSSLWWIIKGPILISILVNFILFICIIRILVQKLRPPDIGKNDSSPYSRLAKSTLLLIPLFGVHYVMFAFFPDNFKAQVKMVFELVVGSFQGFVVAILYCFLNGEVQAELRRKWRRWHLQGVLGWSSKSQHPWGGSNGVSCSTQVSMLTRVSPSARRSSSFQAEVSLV", "assay": "CREB phosphorylation by PACAP stimulus, Western blot, VPAC1/CHO cell", "assay_type": "cell-based", "settings": "compound 10 μM to 10 nM", "description": "The effect of each compound on the phosphorylation of CREB (cAMP-responsive element-binding protein) produced by a PACAP stimulus was examined by Western blot analysis using an anti-phosphorylated CREB (pCREB) antibody with a mouse PAC receptor-expressing CHO cell (PAC1/CHO cell) and a mouse VPAC1 receptor-expressing CHO cell (VPAC1/CHO cell).\nSpecifically, treatment with a compound (PA-8, PA-9, compounds 2j, 20 and 3d) at 10 μM to 10 nM or a solvent therefor (VEH: 0.1% DMSO-containing phosphate buffer solution) was performed for 30 minutes, 1 nM PACAP was then added, and protein was recovered within 30 minutes after a PACAP stimulus."}, "[2]": {"tested_on": "spontaneous pain-like behavior induced by PACAP intrathecal administration", "assay": "Spontaneous pain-like behavior induced by PACAP intrathecal administration", "assay_type": "in vivo, mouse", "settings": "simultaneous i.t. with PACAP (100 pmol), counted for 30 minutes", "description": "When PACAP (100 pmol/5 L) is intrathecally administered to a mouse in a single dose (single i.t. injection), spontaneous pain-like behavior in which the mouse licks or bites the rear half of the body occurs about 5 minutes after the administration (and continues for several hours) (Ohnou et al. J. Pharmacol. Sci. 130, 194-203, 2016). […] Male ddY mice (6 to 12 weeks old) were used, and the behaviors were taken on video. The number of times of spontaneous pain-like behaviors for 30 minutes after the administration was counted."}, "[3]": {"tested_on": "mechanical allodynia induced by PACAP intrathecal administration", "assay": "Mechanical allodynia induced by PACAP intrathecal administration (von Frey test)", "assay_type": "in vivo, mouse", "settings": "10 or 100 pmol, simultaneous i.t.; FIGS. 5A and B", "description": "When single i.t. administration of PACAP (100 pmol/5 L) to mouse was performed, mechanical stimulus sensitive phenomenon (mechanical allodynia) occurred over a long period of time (for at least three months after the administration) (Non Patent Literature 1). […] The mechanical sensitive phenomenon induced by PACAP was not suppressed in an example in which a solvent (VEH: 0.2% DMSO-containing artificial cerebrospinal fluid) was used instead of the compounds.\nMale ddY mice (6 to 12 weeks old) were used, and the threshold to a mechanical stimulus was evaluated by the vonFrey test. Specifically, the 50% withdrawal reflex threshold (Threshold) was calculated in accordance with the method of Chaplan et al. (Chaplan et al., J. Neurosci. Meth. 53, 55-63, 1994). Each compound was dissolved in 99.7% DMSO, and then the resulting solution was diluted with an artificial cerebrospinal fluid for preparation (final concentration of DMSO was 0.2%)."}}, "data": [{"smiles": "C=CCOc1ccc(C2CC(=O)Nc3nc(N)[nH]c(=O)c32)cc1OC", "note": "(stereo not shown) [PA-8, reference compound]", "values": [{"measurement": "suppression of CREB phosphorylation by PACAP (1 nM)", "setting": "[1]", "value": "did not suppress CREB phosphorylation by PACAP (1 nM)"}, {"measurement": "suppression of PACAP-induced spontaneous pain-like behavior", "setting": "[2]; 10 pmol", "value": "suppressed the PACAP response significantly"}, {"measurement": "suppression of PACAP-induced spontaneous pain-like behavior", "setting": "[2]; 100 pmol", "value": "suppressed the PACAP response significantly"}, {"measurement": "suppression of long-term mechanical allodynia induced by PACAP", "setting": "[3]", "value": "strongly suppressed"}]}]}
